{
  "source": "patent US10857214B2",
  "about": "“Compositions and methods for treating gluten intolerance and disorders arising therefrom” (Codexis, Inc., priority 2015, dated 2020)",
  "key": {"33mer from α-gliadin": {"tested_on": "33mer from α-gliadin", "assay": "digestion of 33mer peptide by fluid fractions, MALDI-TOF", "type": "biochemical", "description": "Left: Silver-stain SDS-PAGE of fraction 1 containing nepenthesin, and MALDI spectrum of 33mer peptide processed with fraction 1. Right: Silver-stain SDS-PAGE of fraction 2 containing an unknown enzyme, and MALDI spectrum of 33mer peptides processed with fraction 2. MALDI of undigested 33mer in red, digested 33mer in black.\nTwo proteolytic components were isolated. Activity was retested against a 33mer from α-gliadin using MALDI-TOF. Fractions were also analyzed for protein content using MALDI-TOF (sinapinic acid as matrix), highlighting a single peak at 29 kDa. Fractions enriched in non-specific cleavage properties were further purified using gel filtration and retested for purity and for activity against 33mer.\nFluid protein concentrate was exchanged into 50 mM glycine and subjected to column chromatofocusing with fractionation. Fractions were analyzed for activity using MALDI-TOF (Sciex 5800 TOF/TOF, α-cyano-4-hydroxycinnamic acid as matrix). To test for activity, protein substrates were incubated with aliquots of column fractions at room temperature for 20 minutes and the digests analyzed by MALDI-TOF. Fractions enriched in proline cleavage were manually purified by reversed phase chromatography on Protein MacroTraps (Optimize Technologies). Enzyme was eluted and confirmed active against protein substrates."}, "[1]": {"tested_on": "crude gliadin digests treated with human transglutaminase-2", "assay": "TG2-induced deamidation of gliadin digestion products", "type": "biochemical", "conditions": "0.1 mg/mL human transglutaminase-2, pH 7.5, 37° C., 90 minutes", "source_text": "Fractional deamidation quantified for all peptides from ion chromatogram intensities; data presented as a ratio, where the antigenic peptide deamidation is normalized to the non-antigenic peptide deamidation at the indicated protease concentration. Antigenic regions defined using the DQ2 criteria, inset table.\nWhether enhanced digestion profiles would impact deamidation in antigenic regions was investigated. The recognition of immunodominant peptides by T cells is amplified when these peptides are deamidated in their core binding region by tissue transglutaminase 2 (TG2), particularly at position P4 or P6 in HLA DQ2 associated celiac disease. […] Crude gliadin digests were analyzed for the conversion of non-deamidated peptides to deamidated forms, and sorted all the peptides using a previously published algorithm for the identification of DQ2 binding motifs.\nSupernatants from crude gliadin digests were treated with 0.1 mg/mL human transglutaminase-2 (R&D Systems, Cat. 4376-TG-050) in 100 mM Tris-HCl pH 7.5, 2 mM CaCl2 at 37° C. for 90 minutes, and quenched at 95° C. for 15 minutes, following a published protocol. Treated digests were analyzed by data-dependent LC-MS/MS as described above, allowing for variable N and Q deamidation in database searches. […]"}, "NOD DQ8 mice": {"tested_on": "NOD DQ8 mice", "assay": "transgenic NOD/HLA-DQ8 mouse model of gliadin sensitivity", "conditions": "gliadin codigested with pepsin 100:1 and fluid enzyme 264:1 or nepenthesin II 100:1; pepsin alone is positive control"}, "crude gliadin [2]": {"tested_on": "crude gliadin", "assay": "crude gliadin slurry clarification (gravimetric analysis, turbidity at 595 nm)", "type": "biochemical, wheat", "conditions": "10 g/L crude gliadin slurry, pH 2.5, 37° C.; enzyme alone", "description": "Inset: temporal profiling of slurry (left to right: 0, 30, 60, 90 min) using the protein-enriched fluid extract. […] Turbidity of the digested gliadin was monitored as absorbance at 595 nm ([…]). Black lines represent the turbidity of the gliadin slurry in the absence of protease. Measurement precision was <3% RSD (n=3). […] Data taken from FIGS. 8A-8C. Values reported as milligrams of gliadin per micromolar enzyme concentration per minute digestion time. […] Digest progress was monitored by gravimetric analysis, optical transmission, SDS-PAGE and mass spectrometry. […] For monitoring with optical transmission, digestion reactions were conducted in 96-well plate with ≥3 replicates of each reaction condition, and turbidity monitored at 595 nm at 37° C. every 2 minutes, for 90 minutes (SpectraMax plate reader, Molecular Devices). […] An aliquot of the reaction mixture was analyzed on an 8% SDS-PAGE gel. The remaining amount was centrifuged and the supernatant was analyzed by mass spectrometry."}, "crude gliadin [3]": {"tested_on": "crude gliadin", "assay": "SDS-PAGE and proteomic LC-MS/MS analysis of crude gliadin digests", "type": "biochemical, Triticum aestivum", "description": "Digestions at pH 2.5 and 37° C., for 90 min. All concentrations in μM. M: Molecular weight markers, and gliadin: total crude gliadin in the absence of protease. […] Peptide data from LC-MS/MS runs, with intensities obtained using Protein Deconvolution 1.0. […] A stock gliadin slurry of 20-50 mg/ml was prepared in acidic solution (100 mM glycine HCl, pH 2.5) and briefly sonicated to further break up large particulates and promote suspension. Digestions of 10 mg/mL gliadin slurries were initiated by addition of enzyme (pepsin, fluid enzymes or both) and held at 37° C. with gentle rotation. Digest progress was monitored by gravimetric analysis, optical transmission, SDS-PAGE and mass spectrometry. For gravimetric analysis, digests were quenched by boiling and treated with TCA/chloroform, followed by centrifugation to recover undigested or poorly digested protein. For monitoring with optical transmission, digestion reactions were conducted in 96-well plate with ≥3 replicates of each reaction condition, and turbidity monitored at 595 nm at 37° C. every 2 minutes, for 90 minutes (SpectraMax plate reader, Molecular Devices). The plate was shaken at medium speed briefly between measurements. The digests were quenched after 90 min reaction by boiling for 10 minutes (confirmed to have no impact on digestion profile, a posteriori). An aliquot of the reaction mixture was analyzed on an 8% SDS-PAGE gel. The remaining amount was centrifuged and the supernatant was analyzed by mass spectrometry. Supernatant was analyzed by data-dependent LC-MS/MS, in two 1-hour reversed phase gradient runs, configured for top-10 ion selection using CID in a high/low configuration. In one run, ion selection was restricted to 2+ and higher charge states. In the other run, ion selection was applied to 1+ charge states only. Data from both runs were combined and searched against all UniprotKB/Swiss-Prot entries for gliadin and glutenin from Triticum aestivum (25 proteins), using Mascot v2.3, configured for non-specific digestions and filtered for peptide hits with p<0.05. For estimation of peptide size distribution, all LC-MS spectra were combined and deconvoluted in Protein Deconvolution v1.0, with appropriate settings. For label-free quantitative analysis using the subset of the digest identified in the database search, the hit list was combined with the raw data in Mass Spec Studio and used to generate a set of peptide ion chromatograms, integrated over all isotopes to determine a weight-average intensity for each peptide sequence identified."}, "α-gliadin peptide 33mer": {"tested_on": "α-gliadin peptide 33mer", "assay": "digestion profile of α-gliadin peptide 33mer under dilute conditions, LC-MS", "type": "biochemical", "conditions": "equivalent digestion conditions at optimum pH (2 for pepsin, 7 for MX)", "source_text": "Normalized relative abundance measured from LC-MS ion chromatograms, using caffeine as internal standard. Figure discloses SEQ ID NOS 88, 28, and 89-91, respectively, in order of appearance.\nUsing the pepsin-resistant 33mer, the evolution of peptide products was monitored under dilute conditions."}},
  "data": [
    {"substance": "pepsin: gastric enzyme (EC 3.4.23.1) used as control protease", "values": [
      {"measurement": "digestion of 33mer peptide derived from α-gliadin", "setting": "33mer from α-gliadin", "value": "highly resistant to digestion"},
      {"measurement": "peptide conversion (deamidation) in antigenic regions compared to non-antigenic regions", "setting": "[1]", "value": "over 5.5 times"},
      {"measurement": "small intestinal CD3+ intraepithelial lymphocyte (IEL) counts", "setting": "NOD DQ8 mice", "value": "significant increases"},
      {"measurement": "maximum clarification rate", "setting": "crude gliadin [2]", "value": 0.3, "unit": "mg/µM/min"},
      {"measurement": "digestion of total protein of crude gliadin by SDS-PAGE", "setting": "crude gliadin [3]; 10 mg/ml gliadin, pH 2.5, 37° C., 90 min", "value": "could not be achieved"},
      {"measurement": "detected digest product having a molecular weight greater than 4000 Da", "setting": "crude gliadin [3]; 10 mg/ml gliadin, pH 2.5, 37° C., 90 min, high concentrations of pepsin", "value": 25, "unit": "wt %"},
      {"measurement": "average peptide length, label-free, all peptide signals", "setting": "crude gliadin [3]; 10 mg/ml gliadin, pH 2.5, 37° C., 90 min, pepsin 5 μM, fluid extract 0.23 μM", "value": 19.2, "unit": "residues"},
      {"measurement": "weighted average peptide length, identified peptides", "setting": "crude gliadin [3]; pepsin 5 μM, fluid protease 0.46 μM, co-digestion using these two concentrations", "value": 16.9, "unit": "residues"},
      {"measurement": "hydrolysis of 33mer peptide", "setting": "α-gliadin peptide 33mer", "value": "Neither pepsin nor a bacterial prolyl endoprotease from Myxococcus xanthus (MX) were able to hydrolyse"}
    ]}
  ]
}
